The source of these data is PMC6286390, “Discovering de novo peptide substrates for enzymes using machine learning” (Nature Communications, 2018).

Entries after “also recorded” stand apart in the source; their conditions may differ.

In one assay the test system is B. subtilis Sfp. In words: SPOT cellulose membrane peptide labeling with TAMRA-CoA by Sfp. Type of assay: biochemical, Bacillus subtilis. The following applies: 10 µM PPTase, 40 µM TAMRA-CoA, 0.01% Triton X, 15 µM BSA, 50 mM Tris-HCl pH 8.0, 10 mM MgCl2, 16 h, 37 °C, fluorescence ex 532 nm/em 580 nm. How it is done: (§1) The peptides were synthesized on an amino-PEG-cellulose 10×15 cm^2 membrane and synthesized automatically by MultiPep RSi (INTAVIS Bioanalytical Instruments AG). After Fmoc cleavage with 20% 4-methyl piperidine (Sigma) in dimethylformamide (DMF), activated with 1 equiv. hydroxybenzotriazole and 2 equiv. N-methylpyrrolidone (NMP), and directly spotted on the membrane; after 15 min this step was repeated. The membrane was washed with DMF (3 × 3 min). Solutions of the Fmoc amino acids in NMP were spotted on the membrane (0.6 M solutions; 0.8 M solutions for C, H, N, Q, and R; triple coupling, 15 min each). The Fmoc group was removed from the spots, and the sequences of the peptides were completed using the standard SPOT synthesis protocol and followed by an N-terminal tag. […]
(§2) Synthesized membranes were deprotected with cleavage cocktail consisting of 94% trifluoroacetic acid (TFA), 2.5% water, 1% triisopropylsilane (Sigma), and 2.5% 1,2-ethanedithiol (Sigma) shaking at 2 h at room temperature. […] The membranes were rinsed liberally with TBST buffer, 0.1% TFA, and distilled deionized water before imaging on a Typhoon TRIO Variable Mode Imager (GE Healthcare BioSciences) at 50-µm resolution with 532 nm green laser excitation and 580 nm emission filter and a photomultiplier tube setting of 350 V. The membrane images were analyzed by the ImageJ software[37],[38].

In the next assay the test system is S. coelicolor AcpS. In words: SPOT cellulose membrane peptide labeling with TAMRA-CoA by AcpS. The assay is classed as biochemical, Streptomyces coelicolor. The following applies: 10 µM PPTase, 40 µM TAMRA-CoA, 0.01% Triton X, 15 µM BSA, 50 mM Tris-HCl pH 8.0, 10 mM MgCl2, 16 h, 37 °C, fluorescence ex 532 nm/em 580 nm. The protocol:
as §1, §2

In the case of “AVKMESLEYLDTM [4F01, Sfp-type peptide hit identified by POOL, round 4]”, the “labeling of membrane-bound peptide by Sfp (substrate / hit)” value with B. subtilis Sfp is recorded as “Sfp-type peptide hits; also recorded: specific to Sfp”. Regarding IHDGADSVVWLWSNC, in the assay with B. subtilis Sfp, the “labeling of membrane-bound peptide by Sfp (substrate / hit)” value was “neither a substrate for Sfp nor AcpS”. Besides, the “labeling of membrane-bound peptide by AcpS (substrate / hit)” value with S. coelicolor AcpS is on record as “neither a substrate for Sfp nor AcpS”. Regarding “WPEEGIESFMSVPPP [4T25, AcpS-type peptide hit identified by POOL, round 4]”, in the assay on S. coelicolor AcpS, the “labeling of membrane-bound peptide by AcpS (substrate / hit)” value is listed as “AcpS-type peptide hits; also recorded: specific to AcpS”.
